The values below come from patent US20100189798A1, “CONTROL OF ERWINIA AMYLOVORA WITH VINYLGLYCINES AND BACTERIA THAT PRODUCE VINYLGLYCINES” (The State of Oregon acting by and through the State Board …, priority 2009, published 2010).

The test system of one data set is Erwinia amylovora. The data set is described as follows: Erwinia bioassay: culture filtrates or test solutions in agar well, zone of inhibition. Format: cell-based. The note with it: 300 μL per well, 28° C., 48 hours. Here is the method:
Assays of Culture Filtrates, Live Bacteria, and FVG-Analogs for Antibiosis Activity against Erwinia amylovora and Other Bacterial Species and Strains: The potential antibiosis activities of various P. fluorescens isolates, their culture filtrates, and the FVG analogs prepared as described above were tested against Erwinia amylovora and a number of other bacterial species and strains listed in Table 4. For this purpose, cryovial stocks of the test organisms (including P. fluorescens lines from the stocks described above) were prepared from bacterial cultures grown in LB liquid medium. For this specific experimental purpose, aliquots of these cultures were stored in cryovials at −80° C. in LB medium containing glycerol at a final concentration of 15% (v/v).
Bacterial lawns of test organisms were prepared from cells grown by inoculating 10 μL of the 15% glycerol stocks into 5 mL of liquid LB Medium. The cells were allowed to multiply overnight at 28° C. with shaking (200 rpm). The resulting bacterial suspension was adjusted with water to an optical density of 0.2 at 600 nm (Spectronic® 20 Spectrophotometer; Milton Roy Co., Rochester N.Y.). 300 μL aliquots of the diluted suspension were spread onto the agar surfaces of Petri plates (100×15 mm) containing […] of 925 Minimal Medium (prepared and amended as described below). […]

For data set [1] the following is noted: as described in U.S. patent application Ser. No. 12/567,590; cited from earlier work.
The test system of a further data set is seeds of grassy weeds. The note with it: as disclosed in U.S. patent application Ser. No. 12/567,590; cited from earlier work.

For `NOCC(=O)O` [AOA, 2-aminooxyacetic acid], in the data set on Erwinia amylovora (AOA solution, pH 6.4), the “Growth inhibition of E. amylovora (in words)” value was “effective growth inhibitor”. On to `NCCOC=CC(N)C(=O)O` (stereo not shown) [AVG, 2-amino-4-aminoethoxybut-3-enoic acid], for which the “Inhibitory effect on growth of E. amylovora (in words)” value with Erwinia amylovora (commercial sample of pure AVG-HCl, 3 mM) is “inhibitory effect of AVG on E. amylovora has subsequently been confirmed”. Take `NC(C=CONC=O)C(=O)O` (stereo not shown) [FVG, 2-amino-4-formylaminooxybut-3-enoic acid]: in data set [1], the “Solubility in organic solvents (in words)” value is reported as “insoluble or sparingly soluble in organic solvents”. The “Germination arrest in the seeds of grassy weeds (in words)” value in the data set with seeds of grassy weeds is given as “ability to produce germination arrest”.
